Data on three compounds can be found in patent US20090304816A1, “METHOD AND COMPOSITION FOR TREATING AND DIAGNOSING RESTLESS LEGS SYNDROME” (CEREUSCIENCE AB, priority 2005, published 2009).

In data set [1] the test system is patients with moderate to severe RLS/PMLS. The following applies: pramipexole 0.35 mg once daily evening dose for 21 days.
Data set [2] has the same test system. In words: IRLSS score in two patients with RLS/PLMS, Example 1. In kind it is in vivo. The text has this:
(§1) RLS and PLMS are typically diagnosed by patient history and standardized questionnaires as well as by polysomnographic evaluation.

Data set [3] has the same test system. The following applies: both patients; pramipexole 0.35 mg once daily for 21 days.
Description: Due to remaining RLS complaints iron sucrose therapy in the dosage 500 mg i.v. twice, was introduced during one week (FIG. 1; C).
In data set [4] the test system is patient with clinical symptoms of RLS. In words: Side effects and augmentation in a third patient with RLS, Example 2. In kind it is in vivo. The following applies: iron dextran 200 mg daily. The method, then:
(§2) A subsequent clinical observational study included a patient with clinical symptoms of RLS and an IRLSS score of 26 on the diagnostic evaluation under treatment with L-dopa (levodopa) and carbidopa (Sinernet®, fixed combination dosage of 100 mg L-dopa and 25 mg carbidopa) (FIG. 2; A). The patient needed to be treated with altogether three tablets per evening in order to obtain acceptable symptom relief (IRLSS score 4. FIG. 2; B). […] An attempt to discontinue dopaminergic treatment altogether failed. Following this discontinuation there was a substantial symptom relapse (IRLSS score 15. FIG. 2; E).

The test system is the same in data set [5]. In words: IRLSS score in a third patient with RLS, Example 2. In kind it is in vivo. The settings on record: iron dextran, after discontinuation of dopaminergic treatment (FIG. 2; E). How it is done: as §1, §2

Read-outs that look alike come from different tables or passages of the source.

`CCCN[C@H]1CCc2nc(N)sc2C1` [Pramipexole]: the PLMI was 0 in data set [1] (patient with baseline PLMI 3) and 2 in data set [1] (patient with baseline PLMI 17). The IRLSS score worked out at 17 in data set [2] (patient with baseline IRLSS 28, pramipexole 0.35 mg once daily, day 21 (FIG. 1; B)) and 15 in data set [2] (patient with baseline IRLSS 30, pramipexole 0.35 mg once daily, day 21 (FIG. 1; B)). The side effects result in data set [3] is “No side effects were reported”.
With iron sucrose, the IRLSS score in data set [2] (patient with baseline IRLSS 28, after iron sucrose infusions, pramipexole discontinued for one week (FIG. 1; D)) amounted to 18; in data set [2] (patient with baseline IRLSS 30, after iron sucrose infusions, pramipexole discontinued for one week (FIG. 1; D)), 14.
Consider iron dextran, for which the adverse effects result in data set [4] is listed as “did not cause any adverse effects”. Besides, the IRLSS score in data set [5] was 15.
